Target: T1, Solute carrier family 15 member 1 (Homo sapiens) (UniProt P46059)
T1 sequence (whole entry): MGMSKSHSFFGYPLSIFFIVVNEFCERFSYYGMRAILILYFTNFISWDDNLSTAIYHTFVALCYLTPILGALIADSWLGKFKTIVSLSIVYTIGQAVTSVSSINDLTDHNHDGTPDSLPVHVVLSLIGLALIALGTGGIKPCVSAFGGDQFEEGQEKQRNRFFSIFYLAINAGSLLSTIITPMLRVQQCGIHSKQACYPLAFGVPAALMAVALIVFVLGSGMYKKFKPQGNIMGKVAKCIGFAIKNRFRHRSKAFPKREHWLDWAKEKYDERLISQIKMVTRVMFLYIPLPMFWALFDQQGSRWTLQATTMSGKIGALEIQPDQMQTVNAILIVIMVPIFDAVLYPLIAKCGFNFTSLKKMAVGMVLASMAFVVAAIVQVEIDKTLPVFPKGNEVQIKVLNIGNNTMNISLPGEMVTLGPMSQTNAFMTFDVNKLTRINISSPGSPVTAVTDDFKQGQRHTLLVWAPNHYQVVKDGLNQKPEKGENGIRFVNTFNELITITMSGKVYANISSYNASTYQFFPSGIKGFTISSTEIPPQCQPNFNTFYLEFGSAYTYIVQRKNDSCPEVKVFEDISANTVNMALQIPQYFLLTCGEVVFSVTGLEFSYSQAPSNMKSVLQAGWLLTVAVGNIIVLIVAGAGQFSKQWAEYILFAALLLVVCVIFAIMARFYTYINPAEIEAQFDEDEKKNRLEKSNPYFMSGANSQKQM
Assay: Inhibition of human PEPT1-mediated [3H]GlySar uptake in CHO cells at 1 mM
Type: cell-based

inhibition [%]	Structure (SMILES)
< 22	Cc1c(CC(=O)NCCCC[C@H](N)C(=O)N[C@@H](C)C(=O)O)c(=O)oc2cc(N)c(S(=O)(=O)O)cc12
40	Cc1c(CC(=O)NCCCC[C@H](N)C(=O)N[C@H](C(=O)O)C(C)C)c(=O)oc2cc(N)c(S(=O)(=O)O)cc12
< 22	Cc1c(CC(=O)NCCCC[C@H](N)C(=O)N[C@@H](CO)C(=O)O)c(=O)oc2cc(N)c(S(=O)(=O)O)cc12

Source: ChEMBL document CHEMBL1144795, “Design of high-affinity peptide conjugates with optimized fluorescence quantum yield as markers for small peptide transporter PEPT1 (SLC15A1)” (Bioorg Med Chem Lett, 2008)
